Source: PubChem BioAssay (NCI)
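Following 48 hours of exposure in 96-well plates, responses at five concentrations were used to interpolate endpoints linearly. At the TGI there is no net growth.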

Assays:
Experiment in all cases: NCI tumour cell line growth inhibition, 48 h
786-0 renal = test system: 786-0 renal
A549 NSCLC = test system: A549 NSCLC
ACHN renal = test system: ACHN renal
CAKI-1 renal = test system: CAKI-1 renal
CCRF-CEM leukemia = test system: CCRF-CEM leukemia
COLO 205 colon = test system: COLO 205 colon
DLD-1 colon = test system: DLD-1 colon
DMS 273 small cell lung = test system: DMS 273 small cell lung
EKVX NSCLC = test system: EKVX NSCLC
HCC-2998 colon = test system: HCC-2998 colon
HCT-116 colon = test system: HCT-116 colon
HCT-15 colon = test system: HCT-15 colon
HL-60(TB) leukemia = test system: HL-60(TB) leukemia
HOP-92 NSCLC = test system: HOP-92 NSCLC
HT29 colon = test system: HT29 colon
IGROV1 ovarian = test system: IGROV1 ovarian
K-562 leukemia = test system: K-562 leukemia
KM12 colon = test system: KM12 colon
KM20L2 colon = test system: KM20L2 colon
LOX IMVI melanoma = test system: LOX IMVI melanoma
LXFL 529 NSCLC = test system: LXFL 529 NSCLC
M19-MEL melanoma = test system: M19-MEL melanoma
MALME-3M melanoma = test system: MALME-3M melanoma
MOLT-4 leukemia = test system: MOLT-4 leukemia
NCI-H226 lung = test system: NCI-H226 lung
NCI-H23 lung = test system: NCI-H23 lung
NCI-H460 lung = test system: NCI-H460 lung
NCI-H522 lung = test system: NCI-H522 lung
OVCAR-3 ovarian = test system: OVCAR-3 ovarian
OVCAR-4 ovarian = test system: OVCAR-4 ovarian
OVCAR-5 ovarian = test system: OVCAR-5 ovarian
OVCAR-8 ovarian = test system: OVCAR-8 ovarian
RPMI-8226 leukemia = test system: RPMI-8226 leukemia
RXF 393 renal = test system: RXF 393 renal
RXF-631 renal = test system: RXF-631 renal
SF-268 CNS = test system: SF-268 CNS
SF-295 CNS = test system: SF-295 CNS
SF-539 CNS = test system: SF-539 CNS
SK-MEL-2 melanoma = test system: SK-MEL-2 melanoma
SK-MEL-28 melanoma = test system: SK-MEL-28 melanoma
SK-OV-3 ovarian = test system: SK-OV-3 ovarian
SN12C renal = test system: SN12C renal
SNB-19 CNS = test system: SNB-19 CNS
SNB-75 CNS = test system: SNB-75 CNS
SR leukemia = test system: SR leukemia
SW-620 colon = test system: SW-620 colon
TK-10 renal = test system: TK-10 renal
U251 CNS = test system: U251 CNS
UACC-257 melanoma = test system: UACC-257 melanoma
UO-31 renal = test system: UO-31 renal
XF 498 CNS = test system: XF 498 CNS
A498 renal = test system: A498 renal
BT-549 breast = test system: BT-549 breast
DU-145 prostate = test system: DU-145 prostate
HOP-62 NSCLC = test system: HOP-62 NSCLC
HS 578T breast = test system: HS 578T breast
M14 melanoma = test system: M14 melanoma
MCF7 breast = test system: MCF7 breast
MDA-MB-231 breast = test system: MDA-MB-231 breast
MDA-MB-435 = test system: MDA-MB-435
MDA-N = test system: MDA-N
NCI/ADR-RES ovarian = test system: NCI/ADR-RES ovarian
PC-3 prostate = test system: PC-3 prostate
SK-MEL-5 melanoma = test system: SK-MEL-5 melanoma
T-47D breast = test system: T-47D breast
UACC-62 melanoma = test system: UACC-62 melanoma

Measured: TGI

O=C(O)C(CS)NCc1c2ccccc2nc2ccccc12 (stereo not given)
89.4 µM: M19-MEL melanoma
88 µM: NCI-H522 lung
53.7 µM: XF 498 CNS
91.3 µM: DMS 273 small cell lung
88.9 µM: HOP-92 NSCLC
64.2 µM: UO-31 renal
97.3 µM: SR leukemia
62 µM: HL-60(TB) leukemia
74.6 µM: CCRF-CEM leukemia
37.6 µM: OVCAR-4 ovarian
98.4 µM: RXF 393 renal
70.3 µM: RPMI-8226 leukemia
not listed: A498 renal | BT-549 breast | DU-145 prostate | HOP-62 NSCLC | HS 578T breast | M14 melanoma | MCF7 breast | MDA-MB-231 breast | MDA-MB-435 | MDA-N | NCI/ADR-RES ovarian | PC-3 prostate | SK-MEL-5 melanoma | T-47D breast | UACC-62 melanoma
> 100 µM: all other assays above

BrCC[N+]12CC[N+](CCBr)(CC1)C2
not listed: DLD-1 colon | DMS 273 small cell lung | KM20L2 colon | LXFL 529 NSCLC | M19-MEL melanoma | RXF-631 renal | XF 498 CNS
> 100 µM: all other assays above
